Measurements reported in patent US8362000B2, “Azetidinyl diamides as monoacylglycerol lipase inhibitors” (Janssen Pharmaceutica NV, priority 2009, dated 2013).
Where a chain is given by its changes, count along the chain named. Like-named read-outs stand apart in the source and are kept apart here.

What was measured:
[1] = biological target: T1, purified wild type MGL (wt-MGLL 6H-11-313) (Homo sapiens, UniProt Q99685)
T1 sequence (Q99685 1-303): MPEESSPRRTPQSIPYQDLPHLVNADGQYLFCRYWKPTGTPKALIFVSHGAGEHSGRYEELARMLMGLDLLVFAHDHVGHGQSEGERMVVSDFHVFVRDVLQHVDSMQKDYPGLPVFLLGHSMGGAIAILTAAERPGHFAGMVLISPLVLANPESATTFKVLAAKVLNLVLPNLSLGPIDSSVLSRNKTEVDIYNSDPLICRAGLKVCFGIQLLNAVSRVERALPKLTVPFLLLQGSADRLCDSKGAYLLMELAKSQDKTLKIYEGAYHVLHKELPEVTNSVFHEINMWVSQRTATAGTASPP

mutant MGL = biological target: T2, mutant MGL (Homo sapiens, UniProt Q99685, L169S/L176S); assay: MGL ThermoFluor assay - mutant; type: binding
T2 sequence (Q99685 1-303 L169S/L176S): T1 sequence (Q99685 1-303) with L169S, L176S

[2] = ThermoFluor concentration-response, read-out: MGL mutant ThermoFluor Kd
[3] = compound concentration measured by qNMR, read-out: MGL mutant ThermoFluor qKd (using qNMR conc.)
[4] = ThermoFluor thermal stability binding assay, read-out: MGL mutant ThermoFluor Kd
[5] = ThermoFluor, compound concentration measured by qNMR, read-out: MGL mutant ThermoFluor qKd (μM) (using qNMR conc.)
[6] = ThermoFluor, compound concentration measured by qNMR, read-out: MGL mutant ThermoFluor qKd (using qNMR conc.)

O=C(c1ccc(-c2ccccc2)cc1)N1CCN(C2CN(C(=O)c3cc[nH]c3)C2)CC1 [Cpd 1292, 1-(Biphenyl-4-ylcarbonyl)-4-[1-(1H-pyrrol-3-ylcarbonyl)azetidin-3-yl]piperazine]
IC50 [1]: 3070 nM
Kd (mutant MGL; [2]): 0.631 µM

O=C(c1ccc2c(ccn2CC(F)F)c1)N1CC(N2CCN(C(=O)c3nccs3)CC2)C1 [Cpd 711, 1-(2,2-Difluoroethyl)-5-({3-[4-(1,3-thiazol-2-ylcarbonyl)piperazin-1-yl]azetidin-1-yl}carbonyl)-1H-indole]
IC50 [1]: 127 nM
Kd (mutant MGL; [3]): 0.05 µM

O=C(c1cccc(NCc2ccccc2)c1)N1CC(N2CCN(C(=O)c3nccs3)CC2)C1 [Cpd 713]
IC50 [1]: 135 nM
Kd (mutant MGL; [4]): 0.1 µM

O=C(c1ccc2c(c1)[nH]c(=O)n2-c1ccc(F)cc1)N1CC(N2CCN(C(=O)c3cscn3)CC2)C1 [Cpd 940]
IC50 [1]: 2240 nM
Kd (mutant MGL; [2]): 0.259 µM

O=C(c1ccc(Oc2ccccc2Cl)nc1)N1CC(N2CCN(C(=O)c3cscn3)CC2)C1 [Cpd 811]
IC50 [1]: 2150 nM
Kd (mutant MGL; [2]): 3.33 µM

O=C(c1ccc(S(=O)(=O)c2cccc(C(F)(F)F)c2)cc1)N1CC(N2CCN(C(=O)c3cscn3)CC2)C1 [Cpd 738]
IC50 [1]: 289 nM
Kd (mutant MGL; [2]): 0.291 µM

O=C(c1nccs1)N1CC(N2CCN(C(=O)c3ccc(-c4ccccc4)cc3)C(Cc3ccccc3)C2)C1 (stereo not drawn) [Cpd 1266, 2-Benzyl-1-(biphenyl-4-ylcarbonyl)-4-[1-(1,3-thiazol-2-ylcarbonyl)azetidin-3-yl]piperazine]
IC50 [1]: 1080 nM
Kd (mutant MGL; [2]): 0.032 µM

O=C(c1ccc(OCc2ccc3ccccc3n2)cc1)N1CC(N2CCN(C(=O)c3nccs3)CC2)C1 [Cpd 967]
IC50 [1]: 9 nM
Kd (mutant MGL; [4]): 0.044 µM

O=C(c1ccc(-c2nc(-c3ccccc3Cl)cs2)cc1)N1CC(N2CCN(C(=O)c3nccs3)CC2)C1 [Cpd 1328]
IC50 [1]: < 5 nM
Kd (mutant MGL; [2]): 0.002 µM

N#Cc1ccc(N2CCC(C(=O)N3CC(N4CCN(C(=O)c5cscn5)CC4)C3)CC2)cc1 [Cpd 647]
IC50 [1]: 12700 nM
Kd (mutant MGL; [4]): > 31.2 µM

Cc1cn(-c2ccc(F)cc2)c2ccc(C(=O)N3CCN(C4CN(C(=O)c5cscn5)C4)CC3)cc12 [Cpd 1230, 1-(4-Fluorophenyl)-3-methyl-5-({4-[1-(1,3-thiazol-4-ylcarbonyl)azetidin-3-yl]piperazin-1-yl}carbonyl)-1H-indole]
IC50 [1]: 307 nM
Kd (mutant MGL; [2]): 0.009 µM

O=C(c1cc2ccc(-c3ccc(F)cc3)cc2[nH]1)N1CC(N2CCN(C(=O)c3nccs3)CC2)C1 [Cpd 1204]
IC50 [1]: 166 nM
Kd (mutant MGL; [5]): 0.249 µM

O=C(c1ccc2c(c1)[nH]c(=O)n2CC(F)(F)F)N1CC(N2CCN(C(=O)c3cscn3)CC2)C1 [Cpd 943]
IC50 [1]: 10400 nM
Kd (mutant MGL; [2]): 1.05 µM

O=C(c1cn2cc(Br)ccc2n1)N1CC(N2CCN(C(=O)c3nccs3)CC2)C1 [Cpd 873]
IC50 [1]: 14700 nM
Kd (mutant MGL; [6]): 9.2 µM

Cc1c(C(=O)N2CC(N3CCN(C(=O)c4nccs4)CC3)C2)[nH]c2ccc(-c3cccnc3F)cc12 [Cpd 1149, 5-(2-Fluoropyridin-3-yl)-3-methyl-2-({3-[4-(1,3-thiazol-2-ylcarbonyl)piperazin-1-yl]azetidin-1-yl}carbonyl)-1H-indole]
IC50 [1]: 35 nM
Kd (mutant MGL; [5]): 0.004 µM

Cc1c(C(=O)N2CC(N3CCN(C(=O)c4cscn4)CC3)C2)n(C)c2ccc(Cl)cc12 [Cpd 758]
IC50 [1]: 535 nM
Kd (mutant MGL; [6]): 0.5 µM

Cc1cn(-c2cccc(F)c2)c2ccc(C(=O)N3CC(N4CCN(C(=O)c5ccccc5)CC4)C3)cc12 [Cpd 583]
IC50 [1]: 104 nM
Kd (mutant MGL; [5]): 0.051 µM

O=C(c1ccccc1)N1CCN(C2CN(C(=O)c3cccc4[nH]c(-c5cccc(F)c5)nc34)C2)CC1 [Cpd 609]
IC50 [1]: 4330 nM
Kd (mutant MGL; [4]): 1 µM

O=C(c1cc2cc(C(F)(F)F)ccc2[nH]1)N1CCN(C2CN(C(=O)c3nccs3)C2)CC1 [Cpd 747]
IC50 [1]: 377 nM
Kd (mutant MGL; [2]): 0.111 µM

O=C(c1cc2ccc(-c3cccnc3F)cc2[nH]1)N1CC(N2CCN(C(=O)c3nccs3)CC2)C1 [Cpd 1244]
IC50 [1]: 463 nM
Kd (mutant MGL; [5]): 0.589 µM

O=C(c1cscn1)N1CCN(C2CN(C(=O)c3cccc4nc(-c5cccc(Cl)c5)oc34)C2)CC1 [Cpd 1238]
IC50 [1]: 437 nM
Kd (mutant MGL; [4]): 0.125 µM

Cc1cc(C(=O)N2CC(N3CCN(C(=O)c4nccs4)CC3)C2)ccc1Br [Cpd 727]
IC50 [1]: 219 nM
Kd (mutant MGL; [6]): 0.251 µM

O=C(c1ccc(-c2cccc(C(F)(F)F)c2)cc1)N1CC(N2CCN(C(=O)C3CC3)CC2)C1 [Cpd 1057]
IC50 [1]: 6 nM
Kd (mutant MGL; [5]): 0.016 µM

O=C(c1ccc2c(cnn2Cc2ccc(F)cc2)c1)N1CC(N2CCN(C(=O)c3nccs3)CC2)C1 [Cpd 1029, 1-(4-Fluorobenzyl)-5-({3-[4-(1,3-thiazol-2-ylcarbonyl)piperazin-1-yl]azetidin-1-yl}carbonyl)-1H-indazole]
IC50 [1]: < 5 nM
Kd (mutant MGL; [3]): 0.006 µM

COCCOc1ccc(C(=O)N2CC(N3CCN(C(=O)c4nccs4)CC3)C2)cc1 [Cpd 782]
IC50 [1]: 1070 nM
Kd (mutant MGL; [6]): 0.463 µM

O=C(c1nn(-c2ccc(Cl)cc2Cl)c2c1CCCC2)N1CC(N2CCN(C(=O)C(F)(F)F)CC2)C1 [Cpd 1311]
IC50 [1]: 14600 nM
Kd (mutant MGL; [3]): 67.5 µM

O=C(c1ccc2[nH]c(-c3ccccc3)nc2c1)N1CCN(C2CN(C(=O)c3nccs3)C2)CC1 [Cpd 1271]
IC50 [1]: 1570 nM
Kd (mutant MGL; [2]): 1 µM

CC(C)=Cc1c(C(=O)N2CC(N3CCN(C(=O)c4ccccc4)CC3)C2)sc2cc(C(F)(F)F)ccc12 [Cpd 511]
IC50 [1]: 240 nM
Kd (mutant MGL; [4]): 0.002 µM

O=C(c1ccccc1)N1CCN(C2CN(C(=O)c3sc4cc(F)ccc4c3C3CCC3)C2)CC1 [Cpd 513]
IC50 [1]: 371 nM
Kd (mutant MGL; [2]): 0.009 µM

O=C(c1ccc[nH]1)N1CCN(C2CN(C(=O)c3cc4ccc(C(F)(F)F)nc4o3)C2)CC1 [Cpd 1446]
IC50 [1]: > 16700 nM
Kd (mutant MGL; [4]): 62.5 µM

Cn1cc(-c2cccc(C(F)(F)F)c2)c2ccc(C(=O)N3CC(N4CCN(C(=O)c5ccccc5)CC4)C3)cc21 [Cpd 593]
IC50 [1]: 311 nM
Kd (mutant MGL; [2]): 0.01 µM

Cc1c(C(=O)N2CC(N3CCN(C(=O)c4ccc[nH]4)CC3)C2)nc2ccc(Br)cn12 [Cpd 825]
IC50 [1]: 3150 nM
Kd (mutant MGL; [6]): 4.86 µM

O=C(c1ccc(Oc2ncc(C(F)(F)F)cc2Cl)cc1)N1CC(N2CCN(C(=O)c3cscn3)CC2)C1 [Cpd 720]
IC50 [1]: 173 nM
Kd (mutant MGL; [2]): 0.347 µM

O=C1c2ccccc2-c2ccc(C(=O)N3CC(N4CCN(C(=O)c5nccs5)CC4)C3)cc21 [Cpd 698]
IC50 [1]: 65 nM
Kd (mutant MGL; [6]): 0.085 µM

O=C(c1nccs1)N1CCN(C2CN(C(=O)c3cccc4oc(-c5ccccc5F)nc34)C2)CC1 [Cpd 1193]
IC50 [1]: 116 nM
Kd (mutant MGL; [4]): 0.017 µM

O=C(c1ccc2[nH]c(C3CCCCC3)nc2c1)N1CCN(C2CN(C(=O)c3cscn3)C2)CC1 [Cpd 853]
IC50 [1]: 8340 nM
Kd (mutant MGL; [2]): 1 µM

O=C(c1nccs1)N1CCN(C2CN(C(=O)c3cn(-c4ccc(F)cc4)c4ccccc34)C2)CC1 [Cpd 1224]
IC50 [1]: 270 nM
Kd (mutant MGL; [5]): 0.189 µM

O=C(c1ccc2c(ccn2-c2ccncc2)c1)N1CC(N2CCN(C(=O)c3nccs3)CC2)C1 [Cpd 1127, 1-Pyridin-4-yl-5-({3-[4-(1,3-thiazol-2-ylcarbonyl)piperazin-1-yl]azetidin-1-yl}carbonyl)-1H-indole]
IC50 [1]: 20 nM
Kd (mutant MGL; [6]): 0.098 µM

O=C(c1ccc(-c2ccccc2)cc1)N1CC(N2CCN(C(=O)c3ccon3)CC2)C1 [Cpd 1262]
IC50 [1]: 950 nM
Kd (mutant MGL; [4]): 0.278 µM

O=C(c1cscn1)N1CCN(C2CN(C(=O)c3cccc4[nH]c(-c5ccc(Cl)cc5)nc34)C2)CC1 [Cpd 1290]
IC50 [1]: 2700 nM
Kd (mutant MGL; [4]): 0.643 µM

O=C(c1ccc2c(ccn2-c2ccc(F)cc2)c1)N1CC(N2CCN(C(=O)c3ccc(Cl)s3)CC2)C1 [Cpd 1423]
IC50 [1]: 278 nM
Kd (mutant MGL; [5]): 0.176 µM

O=C(c1ccc2c(c1)[nH]c(=O)n2-c1ccc(C(F)(F)F)cc1)N1CC(N2CCN(C(=O)c3cscn3)CC2)C1 [Cpd 942]
IC50 [1]: 216 nM
Kd (mutant MGL; [2]): 0.135 µM
